Reference: patent US8906852B2 (MethylGene Inc., priority 2010, dated 2014)

These molecules were tested against T1, VEGFR/KDR (Homo sapiens, UniProt P35968) (assay: VEGFR/KDR kinase inhibition, DELFIA assay). Details: ATP 0.6 uM (2x Km), enzyme 5 nM.
T1 construct: made in house; host or cells: Sf9 cells (Spodoptera frugiperda), baculovirus
Type: biochemical
Protocol: Inhibition of VEGFR/KDR is measured in a DELFIA™ assay (Perkin Elmer). The substrate poly(Glu4, Tyr) is immobilized onto black high-binding polystyrene 96-well plates. The coated plates are washed and stored at 4° C. During the assay, the enzyme is pre-incubated with inhibitor and Mg-ATP on ice in polypropylene 96-well plates for 4 minutes, and then transferred to the coated plates. The subsequent kinase reaction takes place at 30° C. for 10-30 minutes. ATP concentrations in the assay are 0.6 uM for VEGFR/KDR (2× the Km). Enzyme concentration is 5 nM. After incubation, the kinase reactions are quenched with EDTA and the plates are washed. Phosphorylated product is detected by incubation with Europium-labeled anti-phosphotyrosine MoAb. After washing the plates, bound MoAb is detected by time-resolved fluorescence in a Gemini SpectraMax reader (Molecular Devices). Compounds are evaluated over a range of concentrations, and IC50 values (concentration of compounds giving 50% inhibition of enzymatic activity) are determined.

T1 sequence (P35968 806-1356): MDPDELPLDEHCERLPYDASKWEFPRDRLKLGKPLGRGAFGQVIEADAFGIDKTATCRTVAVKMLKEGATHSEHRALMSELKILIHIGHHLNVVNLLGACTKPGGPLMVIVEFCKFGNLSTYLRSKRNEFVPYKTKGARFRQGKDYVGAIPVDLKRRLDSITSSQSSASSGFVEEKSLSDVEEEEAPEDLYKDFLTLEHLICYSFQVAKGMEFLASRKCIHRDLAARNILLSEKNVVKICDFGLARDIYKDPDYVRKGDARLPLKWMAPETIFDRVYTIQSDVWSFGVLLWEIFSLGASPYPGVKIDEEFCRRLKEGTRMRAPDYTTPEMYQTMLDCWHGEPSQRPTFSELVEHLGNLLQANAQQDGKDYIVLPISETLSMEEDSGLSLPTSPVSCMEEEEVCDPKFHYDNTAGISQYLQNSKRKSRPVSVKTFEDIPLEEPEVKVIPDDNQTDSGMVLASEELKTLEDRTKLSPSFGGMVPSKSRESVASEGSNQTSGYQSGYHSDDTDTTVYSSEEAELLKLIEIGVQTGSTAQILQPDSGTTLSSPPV

Row | Structure (SMILES) | IC50 [nM]
1 | O=C(Nc1ccc(Oc2ccnc3cc(C4=CCN(CCCCO)CC4)sc23)c(F)c1)NC1CC1 [Compound 277, 1-cyclopropyl-3-(3-fluoro-4-(2-(1-(4-hydroxybutyl)-1,2,3,6-tetrahydropyridin-4-yl)thieno[3,2-b]pyridin-7-yloxy)phenyl)urea] | 100 to 250
2 | COCCN(Cc1ccc(-c2cc3nccc(Oc4ccc(NC(=O)NC5CC5)cc4F)c3s2)nc1)C(=O)[C@@H](NC(=O)CN)C(C)C [Compound 93, (S)-2-(2-aminoacetamido)-N-((6-(7-(4-(3-cyclopropylureido)-2-fluorophenoxy)-thieno[3,2-b]pyridin-2-yl)pyridin-3-yl)methyl)-N-(2-methoxyethyl)-3-methylbutanamide] | < 50
3 | NC(=O)c1cccc(NC(=O)Nc2ccc(Oc3ccnc4cc(-c5ccc(CN6CCCC6=O)cn5)sc34)c(F)c2)c1 [Compound 106, 3-(3-(3-fluoro-4-(2-(5-((2-oxopyrrolidin-1-yl)methyl)pyridin-2-yl)thieno[3,2-b]pyridin-7-yloxy)phenyl)ureido)benzamide] | < 50
4 | O=C(Nc1ccc(Oc2ccnc3cc(-c4ccc(CN5CCOCCOCCOCCOCC5)cn4)sc23)c(F)c1)NC1CC1 [Compound 533] | < 50
5 | CNC(=O)NC1CCN(Cc2ccc(-c3cc4nccc(Oc5ccc(NC(=O)NC6CC6)cc5F)c4s3)nc2)CC1 [Compound 352] | < 50
6 | O=C(CCO)NC1CCN(Cc2ccc(-c3cc4nccc(Oc5ccc(NC(=O)NC6CC6)cc5F)c4s3)nc2)CC1 [Compound 349] | < 50
7 | O=C(Nc1ccc(Oc2ccnc3cc(-c4ccc(C(=O)N5CCN(C(=O)CO)CC5)cn4)sc23)c(F)c1)NC1CC1 [Compound 584] | < 50
8 | CN(CCO)C(=O)NC1CCN(Cc2ccc(-c3cc4nccc(Oc5ccc(NC(=O)NC6CC6)cc5F)c4s3)nc2)CC1 [Compound 358, 1-Cyclopropyl-3-(3-fluoro-4-(2-(5-((4-((2-hydroxyethyl-methylamino)carbonylamino)piperidin-1-yl)methyl)pyridin-2-yl)thieno[3,2-b]pyridin-7-yloxy)phenyl)urea] | < 50
9 | N[C@H]1CCN(Cc2ccc(-c3cc4nccc(Oc5ccc(NC(=O)NC6CC6)cc5F)c4s3)nc2)C1=O [Compound 108, (S)-1-(4-(2-(5-((3-amino-2-oxopyrrolidin-1-yl)methyl)pyridin-2-yl)thieno[3,2-b]pyridin-7-yloxy)-3-fluorophenyl)-3-cyclopropylurea] | < 50
10 | COCCN(Cc1cnc(-c2cc3nccc(Oc4ccc(NC(=O)Nc5ccc(F)cc5F)cc4F)c3s2)n1C)C(C)=O [Compound 117, N-((2-(7-(4-(3-(2,4-difluorophenyl)ureido)-2-fluorophenoxy)thieno[3,2-b]pyridin-2-yl)-1-methyl-1H-imidazol-5-yl)methyl)-N-(2-methoxyethyl)acetamide] | < 50
11 | CC(C)NC(=O)Nc1ccc(Oc2ccnc3cc(-c4ccc(C(=O)N5CCCC5)cc4)sc23)c(F)c1 [Compound 128, 1-(3-fluoro-4-(2-(4-(pyrrolidine-1-carbonyl)phenyl)thieno[3,2-b]pyridin-7-yloxy)phenyl)-3-isopropylurea] | < 50
12 | O=C(Nc1ccc(Oc2ccnc3cc(C#CCN4CCOCC4)sc23)c(F)c1)Nc1ccc(F)cc1F [Compound 119, 1-(2,4-difluorophenyl)-3-(3-fluoro-4-(2-(3-morpholinoprop-1-ynyl)thieno[3,2-b]pyridin-7-yloxy)phenyl)urea] | 100 to 250
13 | COC(=O)[C@@H]1CCCN1Cc1ccc(-c2cc3nccc(Oc4ccc(NC(=O)NC5CC5)cc4F)c3s2)nc1 [Compound 476] | < 50
14 | N[C@@H]1CCN(Cc2ccc(-c3cc4nccc(Oc5ccc(NC(=O)NC6CC6)cc5F)c4s3)nc2)C1=O [Compound 109, (R)-1-(4-(2-(5-((3-amino-2-oxopyrrolidin-1-yl)methyl)pyridin-2-yl)thieno[3,2-b]pyridin-7-yloxy)-3-fluorophenyl)-3-cyclopropylurea] | < 50
15 | COCCN(Cc1cnc(-c2cc3nccc(Oc4ccc(NC(=O)NC5CC5)cc4F)c3s2)n1C)C(C)=O [Compound 212, N-((2-(7-(4-(3-cyclopropylureido)-2-fluorophenoxy)thieno[3,2-b]pyridin-2-yl)-1-methyl-1H-imidazol-5-yl)methyl)-N-(2-methoxyethyl)acetamide] | < 50

Continued, values first:

Row | IC50 [nM] | Structure (SMILES)
16 | < 50 | CN(C)CCNCC(=O)N1CCN(Cc2ccc(-c3cc4nccc(Oc5ccc(NC(=O)NC6CC6)cc5F)c4s3)nc2)CC1 [Compound 549, 1-cyclopropyl-3-(4-(2-(5-((4-(2-(2-(dimethylamino)ethylamino)acetyl)piperazin-1-yl)methyl)pyridin-2-yl)thieno[3,2-b]pyridin-7-yloxy)-3-fluorophenyl)urea]
17 | < 50 | CCNC(=O)N1CCN(Cc2ccc(-c3cc4nccc(Oc5ccc(NC(=O)NC6CC6)cc5F)c4s3)nc2)CC1 [Compound 551]
18 | < 50 | O=C(Nc1ccc(Oc2ccnc3cc(-c4cn(CC(=O)N5CCOCC5)nn4)sc23)c(F)c1)NC1CC1 [Compound 368]
19 | < 50 | O=C(Nc1ccc(Oc2ccnc3cc(C(=O)N4CCCC4)sc23)c(F)c1)NC1CC1 [Compound 445]
20 | < 50 | CC(CC(=O)O)N1CCN(Cc2ccc(-c3cc4nccc(Oc5ccc(NC(=O)NC6CC6)cc5F)c4s3)nc2)CC1 (stereo not drawn) [Compound 516]
21 | < 50 | O=C(O)CCNC(=O)N1CCN(Cc2ccc(-c3cc4nccc(Oc5ccc(NC(=O)NC6CC6)cc5F)c4s3)nc2)CC1 [Compound 559]
22 | < 50 | O=C(O)CNC(=O)N1CCN(Cc2ccc(-c3cc4nccc(Oc5ccc(NC(=O)NC6CC6)cc5F)c4s3)nc2)CC1 [Compound 558]
23 | < 50 | O=C(O)COC1CCN(Cc2ccc(-c3cc4nccc(Oc5ccc(NC(=O)NC6CC6)cc5F)c4s3)nc2)CC1 [Compound 329, 2-(1-((6-(7-(4-(3-cyclopropylureido)-2-fluorophenoxy)thieno[3,2-b]pyridin-2-yl)pyridin-3-yl)mcthyI)piperidin-4-yloxy)acetic acid]
24 | < 50 | O=C(O)CCCCCCCN1CCN(Cc2ccc(-c3cc4nccc(Oc5ccc(NC(=O)NC6CC6)cc5F)c4s3)nc2)CC1 [Compound 522, 8-(4-((6-(7-(4-(3-cyclopropylureido)-2-fluorophenoxy)thieno[3,2-b]pyridin-2-yl)pyridin-3-yl)methyl)piperazin-1-yl)octanoic acid]
25 | < 50 | N[C@H]1CCN(Cc2ccc(-c3cc4nccc(Oc5ccc(NC(=O)NC6CC6)cc5F)c4s3)nc2)C1 [Compound 495, (S)-1-(4-(2-(5-((3-aminopyrrolidin-1-yl)methyl)pyridin-2-yl)thieno[3,2-b]-pyridin-7-yloxy)-3-fluorophenyl)-3-cyclopropylurea]
26 | < 50 | O=C(Nc1ccc(Oc2ccnc3cc(-c4cnn(CCOC(=O)NC5CC5)c4)sc23)c(F)c1)NC1CC1 [Compound 157, 2-(4-(7-(4-(3-cyclopropylureido)-2-fluorophenoxy)thieno[3,2-b]pyridin-2-yl)-1H-pyrazol-1-yl)ethyl cyclopropylcarbamate]
27 | < 50 | CN(C)CCCn1cc(-c2cc3nccc(Oc4ccc(NC(=O)NC5CC5)cc4F)c3s2)nn1 [Compound 384]
28 | < 50 | O=C(Nc1ccc(Oc2ccnc3cc(-c4ccc(C(=O)N5CCNCC5)cn4)sc23)c(F)c1)NC1CC1 [Compound 550]
29 | < 50 | CCN(C(=O)OC(C)(C)C)[C@H]1CCN(C(=O)c2cc3nccc(Oc4ccc(NC(=O)NC5CC5)cc4F)c3s2)C1 [Compound 456]
30 | < 50 | COC(=O)COC1CCN(Cc2ccc(-c3cc4nccc(Oc5ccc(NC(=O)NC6CC6)cc5F)c4s3)nc2)CC1 [Compound 328, methyl 2-(1-((6-(7-(4-(3-cyclopropylureido)-2-fluorophenoxy)thieno [3,2-b]pyridin-2-yl)pyridin-3-yl)methyl)piperidin-4-yloxy)acetate]
31 | < 50 | CN(CCF)C1CCN(Cc2ccc(-c3cc4nccc(Oc5ccc(NC(=O)NC6CC6)cc5F)c4s3)nc2)CC1 [Compound 421, 1-Cyclopropyl-3-(3-fluoro-4-(2-(5-((4-((2-fluoroethyl)(methyl)amino)piperidin-1-yl)methyl)pyridin-2-yl)thieno[3,2-b]pyridin-7-yloxy)phenyl)urea]
32 | < 50 | CCNC(=O)N1CC(N(CC(=O)O)Cc2ccc(-c3cc4nccc(Oc5ccc(NC(=O)NC6CC6)cc5F)c4s3)nc2)C1 [Compound 434, 2-(((6-(7-(4-(3-Cyclopropylureido)-2-fluorophenoxy)thieno[3,2-b]pyridin-2-yl)pyridin-3-yl)methyl)(1-(ethylcarbamoyl)azetidin-3-yl)-amino)acetic acid]
33 | < 50 | CN(C)CC(=O)N1CCN(Cc2ccc(-c3cc4nccc(Oc5ccc(NC(=O)NC6CC6)cc5F)c4s3)nc2)CC1 [Compound 538]
34 | < 50 | O=C(Nc1ccc(Oc2ccnc3cc(-c4cn(CCC(=O)N5CCCC5)nn4)sc23)c(F)c1)NC1CC1 [Compound 380]
35 | < 50 | O=C(Nc1ccc(Oc2ccnc3cc(-c4ccc(COC5CNC5)cn4)sc23)c(F)c1)NC1CC1 [Compound 405, 1-(4-(2-(5-((Azetidin-3-yloxy)methyl)pyridin-2-yl)thieno[3,2-b]pyridin-7-yloxy)-3-fluorophenyl)-3-cyclopropylurea]
36 | < 50 | CN1CCN(CCn2cnc(-c3cc4nccc(Oc5ccc(NC(=O)NC6CC6)cc5F)c4s3)c2)CC1 [Compound 266, 1-Cyclopropyl-3-(3-fluoro-4-(2-(1-(2-(4-methylpiperazin-1-yl)ethyl)-1H-imidazol-4-yl)thieno[3,2-b]pyridin-7-yloxy)phenyl)urea]
